The target in the test is T1, Recombinant human renin (Homo sapiens, UniProt P00797).
T1 construct: isolate the active form (residues 67-406); made in house; host or cells: FreeStyle 293-F cells, transient expression of pcDNA3.1(+)/hREN
T1 sequence (P00797 67-406): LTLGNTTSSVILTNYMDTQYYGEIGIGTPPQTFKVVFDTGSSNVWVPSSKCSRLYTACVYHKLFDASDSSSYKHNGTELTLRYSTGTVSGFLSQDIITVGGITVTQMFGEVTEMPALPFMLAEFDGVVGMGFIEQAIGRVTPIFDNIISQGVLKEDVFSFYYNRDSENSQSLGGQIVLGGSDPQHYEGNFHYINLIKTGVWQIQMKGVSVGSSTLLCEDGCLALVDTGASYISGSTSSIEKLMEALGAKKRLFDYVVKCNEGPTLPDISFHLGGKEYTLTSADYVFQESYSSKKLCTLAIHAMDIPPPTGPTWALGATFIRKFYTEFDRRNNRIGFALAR
Briefly: In vitro enzymatic activity assay of renin inhibitors (fluorescence, QXL520/HiLyteFluo488 peptide substrate). It is filed as biochemical. The following applies: recombinant human renin 3 nM, 1 μM substrate, pre-incubated 10 minutes at 37° C., incubation one hour, pH 7.4, 5% DMSO; read-out: IC50 of Exemplified Compounds Against Renin.

SMILES strings stand for the structures. Where only a bound is given, the exact number is not on record here.

For the compound `COCCCOc1cccc(-n2c(-c3ccccc3)c(C(=O)N3CCNCC3)n(Cc3cccc(Oc4ccccc4)c3)c2=O)c1` [Example 75, 1-(3-(3-Methoxypropoxy)phenyl)-3-(3-phenoxybenzyl)-5-phenyl-4-(piperazine-1-carbonyl)-1H-imidazol-2(3H)-one], the IC50 (in general, the point on the concentration scale where inhibition reaches its midpoint) was less than 100 nM.

Consider `O=C(c1c(-c2ccccc2)n(-c2cccc(N3CCOCC3)c2)c(=O)n1Cc1cccc(OCc2ccccc2)c1)N1CCNCC1` [Example 76, 1-(3-(Benzyloxy)benzyl)-3-(3-morpholinophenyl)-4-phenyl-5-(piperazine-1-carbonyl)-1H-imidazol-2(3H)-one], for which the IC50 is less than 100 nM.

In the case of `O=C(c1c(-c2ccccc2)n(-c2cccc(N3CCOCC3)c2)c(=O)n1Cc1cccc(-n2cccc2)c1)N1CCNCC1` [Example 77, 1-(3-(1H-Pyrrol-1-yl)benzyl)-3-(3-morpholinophenyl)-4-phenyl-5-(piperazine-1-carbonyl)-1H-imidazol-2(3H)-one], the IC50 was less than 100 nM.

Regarding `CC(C)CN(C)C(=O)c1cccc(Cn2c(C(=O)N3CCNCC3)c(-c3ccccc3)n(-c3cccc(N4CCOCC4)c3)c2=O)c1` [Example 78, N-isobutyl-N-methyl-3-((3-(3-morpholinophenyl)-2-oxo-4-phenyl-5-(piperazine-1-carbonyl)-2,3-dihydro-1H-imidazol-1-yl)methyl)benzamide], the IC50 is more than 1000 nM.

As for `N#Cc1cccc(Cn2c(C(=O)N3CCNCC3)c(-c3ccccc3)n(-c3ccccc3)c2=O)c1` [Example 79, 3-((2-oxo-3,4-diphenyl-5-(piperazine-1-carbonyl)-2,3-dihydro-1H-imidazol-1-yl)methyl)benzonitrile], the IC50 fell in the range of 500 to 1000 nM.

In the case of `COC(=O)c1cccc(Cn2c(C(=O)N3CCNCC3)c(-c3ccccc3)n(-c3ccccc3)c2=O)c1` [Example 80, Methyl 3-((2-oxo-3,4-diphenyl-5-(piperazine-1-carbonyl)-2,3-dihydro-1H-imidazol-1-yl)methyl)benzoate], the IC50 was more than 1000 nM.

In the case of `O=C(c1c(-c2ccccc2)n(C2CCOCC2)c(=O)n1Cc1ccccc1)N1CCNCC1` [Example 81, 1-Benzyl-4-phenyl-5-(piperazine-1-carbonyl)-3-(tetrahydro-2H-pyran-4-yl)-1H-imidazol-2(3H)-one], the IC50 was more than 1000 nM.

Turning to `O=C(c1c(-c2ccccc2)n(-c2ccccc2)c(=O)n1Cc1cccc2cccnc12)N1CCNCC1` [Example 82, 1,5-Diphenyl-4-(piperazine-1-carbonyl)-3-(quinolin-8-ylmethyl)-1H-imidazol-2(3H)-one], the IC50 is more than 1000 nM.

As for `COc1cccc(Cn2c(C(=O)N3CCNCC3)c(-c3ccccc3)n(-c3ccccc3)c2=O)c1` [Example 83, 1-(3-methoxybenzyl)-3,4-diphenyl-5-(piperazine-1-carbonyl)-1H-imidazol-2(3H)-one], the half-maximal inhibitory concentration (IC50) fell in the range of 100 to 500 nM.

With `O=C(c1c(-c2ccccc2)n(-c2ccccc2)c(=O)n1Cc1ccc2ccccc2c1)N1CCNCC1` [Example 84, 1-(Naphthalen-2-ylmethyl)-3,4-diphenyl-5-(piperazine-1-carbonyl)-1H-imidazol-2(3H)-one], the IC50 lay within 100 to 500 nM.

As to `N#Cc1ccccc1Cn1c(C(=O)N2CCNCC2)c(-c2ccccc2)n(-c2ccccc2)c1=O` [Example 85, 2-((2-Oxo-3,4-diphenyl-5-(piperazine-1-carbonyl)-2,3-dihydro-1H-imidazol-1-yl)methyl)benzonitrile], the IC50 was more than 1000 nM.

As to `COc1cc(Cn2c(C(=O)N3CCNCC3)c(-c3ccccc3)n(-c3ccccc3)c2=O)cc(OC)c1` [Example 86, 1-(3,5-Dimethoxybenzyl)-3,4-diphenyl-5-(piperazine-1-carbonyl)-1H-imidazol-2(3H)-one], the IC50 was in the range of 100 to 500 nM.

`O=C(c1c(-c2ccccc2)n(-c2ccccc2)c(=O)n1Cc1ccc(Cl)c(OC(F)(F)F)c1)N1CCNCC1` [Example 87, 1-(4-Chloro-3-(trifluoromethoxy)benzyl)-3,4-diphenyl-5-(piperazine-1-carbonyl)-1H-imidazol-2(3H)-one]: the IC50 is 100 to 500 nM.

In the case of `O=C(c1c(-c2ccccc2)n(-c2ccccc2)c(=O)n1Cc1cccc(-n2cccc2)c1)N1CCNCC1` [Example 88, 1-(3-(1H-Pyrrol-1-yl)benzyl)-3,4-diphenyl-5-(piperazine-1-carbonyl)-1H-imidazol-2(3H)-one], the IC50 is less than 100 nM.

Turning to `O=C(c1[nH]c(=O)n(C2CCCCC2)c1-c1ccccc1)N1CCCNCC1` [Example 89, 1-Cyclohexyl-4-(1,4-diazepane-1-carbonyl)-5-phenyl-1H-imidazol-2(3H)-one], the IC50 is more than 1000 nM.

Consider `O=C(c1c(-c2ccccc2)n(C2CCCCC2)c(=O)n1Cc1cc(Cl)nc(N2CCOCC2)c1)N1CCNCC1` [Example 90, 1-((2-Chloro-6-morpholinopyridin-4-yl)methyl)-3-cyclohexyl-4-phenyl-5-(piperazine-1-carbonyl)-1H-imidazol-2(3H)-one], for which the half-inhibitory concentration (IC50) is 500 to 1000 nM.

`O=C(c1c(-c2ccccc2)n(C2CCCCC2)c(=O)n1Cc1cc(-c2cn[nH]c2)nc(-c2cn[nH]c2)c1)N1CCNCC1` [Example 91, 1-Cyclohexyl-3-((2,6-di(1H-pyrazol-4-yl)pyridin-4-yl)methyl)-5-phenyl-4-(piperazine-1-carbonyl)-1H-imidazol-2(3H)-one]: the IC50 is 100 to 500 nM.

Take `COc1cccc(Cn2c(C(=O)N3CCNCC3)c(-c3ccccc3)n(C3CCCN(C(C)=O)C3)c2=O)c1` (stereo not drawn) [Example 92, 1-(1-Acetylpiperidin-3-yl)-3-(3-methoxybenzyl)-5-phenyl-4-(piperazine-1 carbonyl)-1H-imidazol-2(3H)-one]: the IC50 was more than 1000 nM.

In the case of `CC(=O)N1CCCC(n2c(-c3ccccc3)c(C(=O)N3CCNCC3)n(Cc3ccccc3)c2=O)C1` (stereo not drawn) [Example 93, 1-(1-Acetylpiperidin-3-yl)-3-benzyl-5-phenyl-4-(piperazine-1-carbonyl)-1H-imidazol-2(3H)-one], the IC50 is more than 1000 nM.

As to `CC(=O)N1CCCC(n2c(-c3ccccc3)c(C(=O)N3CCNCC3)[nH]c2=O)C1` (stereo not drawn) [Example 94, 1-(1-Acetylpiperidin-3-yl)-5-phenyl-4-(piperazine-1-carbonyl)-1H-imidazol-2(3H)-one], the half-maximal inhibitory concentration (IC50) is more than 1000 nM.

Regarding `O=C(c1ccccc1)N1CCCC(n2c(-c3ccccc3)c(C(=O)N3CCNCC3)n(Cc3ccccc3)c2=O)C1` (stereo not drawn) [Example 95, 1-(1-Benzoylpiperidin-3-yl)-3-benzyl-5-phenyl-4-(piperazine-1-carbonyl)-1H-imidazol-2(3H)-one], the 50% inhibitory concentration (IC50) was more than 1000 nM.

On to `O=C(c1c(-c2ccccc2)n(C2CCCN(S(=O)(=O)c3ccccc3)C2)c(=O)n1Cc1ccccc1)N1CCNCC1` (stereo not drawn) [Example 96, 1-Benzyl-4-phenyl-3-(1-(phenylsulfonyl)piperidin-3-yl)-5-(piperazine-1-carbonyl)-1H-imidazol-2(3H)-one], for which the IC50 was in the range of 500 to 1000 nM.

As for `O=C(c1ccco1)N1CCCC(n2c(-c3ccccc3)c(C(=O)N3CCNCC3)n(Cc3ccccc3)c2=O)C1` (stereo not drawn) [Example 97, 1-Benzyl-3-(1-(furan-2-carbonyl)piperidin-3-yl)-4-phenyl-5-(piperazine-1-carbonyl)-1H-imidazol-2(3H)-one], the IC50 is more than 1000 nM.

On to `O=C(c1[nH]c(=O)n(C2CCCN(S(=O)(=O)c3ccccc3)C2)c1-c1ccccc1)N1CCNCC1` (stereo not drawn) [Example 98, 5-Phenyl-1-(1-(phenylsulfonyl)piperidin-3-yl)-4-(piperazine-1-carbonyl)-1H-imidazol-2(3H)-one], for which the IC50 was in the range of 500 to 1000 nM.

Regarding `CC(=O)N1CCCC(n2c(-c3ccccc3)c(C(=O)N3CCNCC3)n(Cc3cccc(Oc4ccccc4)c3)c2=O)C1` (stereo not drawn) [Example 99, 1-(1-Acetylpiperidin-3-yl)-3-(3-phenoxybenzyl)-5-phenyl-4-(piperazine-1-carbonyl)-1H-imidazol-2(3H)-one], the IC50 was more than 1000 nM.

Take `O=C(c1c(-c2ccccc2)n(C2CCCN(S(=O)(=O)c3ccccc3)C2)c(=O)n1Cc1ccccc1)N1CCNCC1` (stereo not drawn) [Example 100, 1-Benzyl-4-phenyl-3-(1-(phenylsulfonyl)piperidin-3-yl)-5-(piperazine-1-carbonyl)-1H-imidazol-2(3H)-one]: the IC50 lay in the range of 500 to 1000 nM.

With `O=C(c1c(-c2ccccc2)n(C2CCCN(S(=O)(=O)c3ccccn3)C2)c(=O)n1Cc1ccccc1)N1CCNCC1` (stereo not drawn) [Example 101, 1-Benzyl-4-phenyl-5-(piperazine-1-carbonyl)-3-(1-(pyridin-2-ylsulfonyl)piperidin-3-yl)-1H-imidazol-2(3H)-one], the IC50 was more than 1000 nM.

Take `O=C(c1c(-c2ccccc2)n(C2CCCN(S(=O)(=O)c3ccccc3)C2)c(=O)n1Cc1cccc(Oc2ccccc2)c1)N1CCNCC1` (stereo not drawn) [Example 102, 1-(3-Phenoxybenzyl)-4-phenyl-3-(1-(phenylsulfonyl)piperidin-3-yl)-5-(piperazine-1-carbonyl)-1H-imidazol-2(3H)-one]: the IC50 fell in the range of 100 to 500 nM.

Turning to `O=C(c1c(-c2ccccc2)n(C2CCCN(S(=O)(=O)c3ccccn3)C2)c(=O)n1Cc1cccc(Oc2ccccc2)c1)N1CCNCC1` (stereo not drawn) [Example 103, 1-(3-Phenoxybenzyl)-4-phenyl-5-(piperazine-1-carbonyl)-3-(1-(pyridin-2-ylsulfonyl)piperidin-3-yl)-1H-imidazol-2(3H)-one], the IC50 lay in the range of 100 to 500 nM.

On to `CC(=O)N1CCCC(n2c(-c3ccccc3)c(C(=O)N3CCNC[C@H]3Cc3ccccc3)[nH]c2=O)C1` (stereo partly drawn) [Example 104, 1-(1-Acetylpiperidin-3-yl)-4-((R)-2-benzylpiperazine-1-carbonyl)-5-phenyl-1H-imidazol-2(3H)-one], for which the IC50 fell in the range of 500 to 1000 nM.
